# Data from US5470827A, “Method of producing iturin A and antifungal agent for profound mycosis” (Higeta Shoyu Co., Ltd., priority 1993, dated 1995).
# *1 amine or outer side, *2 acyl side, *3 side chain or, on linkers, in order; H or OH if unused. Where a SMILES comes first, the peptide text is derived from it. [ ]: non-standard residue; d: D form. ξ: configuration not given here. ξβ3hGly(tridecyl) = CCCCCCCCCCCCCC(CC(=O)[*:2])N[*:1]; ξβ3hGly(undecyl) = CCCCCCCCCCCC(CC(=O)[*:2])N[*:1]; X2 = CC(C)CCCCCCCCC[C@H](CC(=O)[*:2])N[*:1]; X6 = CCC(C)CCCCCCCCCCC(CC(=O)[*:2])N[*:1]; X4 = CC(C)CCCCCCCCCCC(CC(=O)[*:2])N[*:1]; X3 = CCC(C)CCCCCCCCC(CC(=O)[*:2])N[*:1]; X5 = CCCCCCCCCCCCC(CC(=O)[*:2])N[*:1]
# Tests used:
# [1] = test system: Candida albicans 7N; assay type: cell-based; details: for MIC: 7N
# Description: (§1) The microbicidal spectrum of iturin A, which is the active ingredient in the antifungal agent for profound mycosis of the present invention, may be obtained, for example, from the minimum growth inhibiting concentration (MIC) of iturin A to various fungi such as clinically-isolated strains, animal-infected fungi and others to be obtained on the basis of the method as designated by Japan Chemotherapy Association.
# (§2) The antifungal activity of iturin A as produced in Example 1 was measured to identify its antifungal activity. Precisely, the minimum growth inhibiting concentration (MIC) of iturin A4 against fungi was measured on the basis of the method as designated by Japan Chemotherapy Association, and the results shown in Table 6 below were obtained.
# In addition, MIC of each of iturin A2 to iturin A8 against Candida albicans 7N was measured in the same manner as above, and the results shown in Table 7 below were obtained.
# Fungi used: Candida albicans 7N
# Medium used: 0.5% Glucose, Yeastnitrogen base (made by DIFCO Co.)
# [2] = Acute toxicity, single intravenous injection; assay type: in vivo, ddy-N mice; details: male mice
# Description: (§3) In the next test, mice of the same kind as mentioned above were used. Iturin A4 was dissolved in DMSO(dimethylsulfoxide)-castor oil-5% Glc solution, and the resulting solution was injected to the caudal vein of each of the five male mice once or plural times. For the single injection, the solution was administered to the mice each in an amount of 200 mg per kg of the body weight; and for the plural injections, it was administered to them 14 times each in an amount of 30 mg/kg/day. After the injection(s), the time-dependent mortality of the test mice was observed and the results shown in Tables 10 and 11 below were obtained.
# [3] = test system: Candida albicans IFM 40002; test: minimum growth inhibiting concentration (MIC); assay type: cell-based
# Description: as §1, §2
# [4] = test system: A. flavas IAM 2044; test: minimum growth inhibiting concentration (MIC); assay type: cell-based
# Description: as §1, §2
# [5] = test system: C. tropicalis IFM 40018; test: minimum growth inhibiting concentration (MIC); assay type: cell-based
# Description: as §1, §2
# [6] = test system: Candida albicans IFM 40001; test: minimum growth inhibiting concentration (MIC); assay type: cell-based
# Description: as §1, §2
# [7] = test system: Aspergillus fumigatus Tsukuba No. 12; test: minimum growth inhibiting concentration (MIC); assay type: cell-based
# Description: as §1, §2
# [8] = test system: C. glabrata IFM 40065; test: minimum growth inhibiting concentration (MIC); assay type: cell-based
# Description: as §1, §2
# [9] = test system: Mucor guilliermondii IFO 9403; test: minimum growth inhibiting concentration (MIC); assay type: cell-based
# Description: as §1, §2
# [10] = test system: Cryptococcus neoformans IFM 40038; test: minimum growth inhibiting concentration (MIC); assay type: cell-based
# Description: as §1, §2
# [11] = test system: Cryptococcus neoformans IFM 40043; test: minimum growth inhibiting concentration (MIC); assay type: cell-based
# Description: as §1, §2
# [12] = test system: C. krusei IFM 40019; test: minimum growth inhibiting concentration (MIC); assay type: cell-based
# Description: as §1, §2
# [13] = Acute Toxicity Test, oral single administration; assay type: in vivo, ddy-N mice; details: for Mortality (%) / Time-Dependent Mortality: oral 2,000 mg/kg once; for Time-Dependent Mortality: day 1; for LD50 (mg/kg): oral single administration
# Description: Iturin A4 obtained in Example 1 was dissolved in an injectable distilled water to prepare an aqueous 10% (w/v) solution of iturin A4 to be tested. The test solution was forcedly oral-administered once to five male and five female ddy-N mice, after having been fasted for 13 hours, by the use of a stomach probe. The test ddy-N mice were about 4-week age ones and were obtained from Nippon Medico-Chemical Animal Sources Laboratories Co., Ltd. Prior to the test, all the test mice were preliminarily bred in the laboratory for one week so as to confirm the healthy condition of them. Then, the about 5-week age mice were subjected to the test. The body weight of the test mice just before the test was 28 g (male mice) and from 18 to 22 g (female mice).
# To each of the male and female mice, the test solution was administered in an amount of 20 ml per kg of the body weight, whereby 2,000 mg/kg of the test substance was administered to them.
# [14] = Acute toxicity, plural intravenous injections; assay type: in vivo, ddy-N mice; details: male mice, intravenous 30 mg/kg/day × 14 times
# Description: as §3
# [15] = oral 2,000 mg/kg, male and female mice
smiles,measurement,setting,value
"CC(C)CCCCCCCCCCC1CC(=O)N[C@@H](CC(N)=O)C(=O)N[C@H](Cc2ccc(O)cc2)C(=O)N[C@H](CC(N)=O)C(=O)N[C@@H](CCC(N)=O)C(=O)N2CCC[C@H]2C(=O)N[C@H](CC(N)=O)C(=O)N[C@@H](CO)C(=O)N1 (stereo partly shown) [Iturin A6, iturin A6] (cyclo(N[dY][dN]QP[dN]S[X4]))",MIC,[1],12.5 µg/mL
"CCC(C)CCCCCCCCCCC1CC(=O)N[C@@H](CC(N)=O)C(=O)N[C@H](Cc2ccc(O)cc2)C(=O)N[C@H](CC(N)=O)C(=O)N[C@@H](CCC(N)=O)C(=O)N2CCC[C@H]2C(=O)N[C@H](CC(N)=O)C(=O)N[C@@H](CO)C(=O)N1 (stereo partly shown) [Iturin A8, iturin A8] (cyclo(N[dY][dN]QP[dN]S[X6]))",MIC,[1],12.5 µg/mL
"CCCCCCCCCCCCCC1CC(=O)N[C@@H](CC(N)=O)C(=O)N[C@H](Cc2ccc(O)cc2)C(=O)N[C@H](CC(N)=O)C(=O)N[C@@H](CCC(N)=O)C(=O)N2CCC[C@H]2C(=O)N[C@H](CC(N)=O)C(=O)N[C@@H](CO)C(=O)N1 (stereo partly drawn) [Iturin A7, iturin A7] (cyclo(N[dY][dN]QP[dN]S[ξβ3hGly(tridecyl)]))",MIC,[1],6.25 µg/mL
"CC(C)CCCCCCCCC[C@@H]1CC(=O)N[C@@H](CC(N)=O)C(=O)N[C@H](Cc2ccc(O)cc2)C(=O)N[C@H](CC(N)=O)C(=O)N[C@@H](CCC(N)=O)C(=O)N2CCC[C@H]2C(=O)N[C@H](CC(N)=O)C(=O)N[C@@H](CO)C(=O)N1 [Iturin A4, iturin A4] (cyclo(N[dY][dN]QP[dN]S[X2]))",LD50,[2]; single intravenous injection,> 200 mg/kg
same,Mortality (%),[2]; single intravenous injection 200 mg/kg,0%
same,Time-Dependent Mortality,"[2]; single intravenous injection 200 mg/kg, day 1",0/5
same,MIC (μg/ml) of Iturin A4,[3],1.56 µg/mL
same,MIC (μg/ml) of Iturin A4,[4],2.4 µg/mL
same,MIC (μg/ml) of Iturin A4,[5],6.25 µg/mL
same,MIC (μg/ml) of Iturin A4,[6],< 0.05 µg/mL
same,MIC (μg/ml) of Iturin A4,[7],6.25 µg/mL
same,MIC (μg/ml) of Iturin A4,[8],6.25 µg/mL
same,MIC (μg/ml) of Iturin A4,[9],1.2 µg/mL
same,MIC (μg/ml) of Iturin A4,[10],3.13 µg/mL
same,MIC (μg/ml) of Iturin A4,[11],0.78 µg/mL
same,MIC (μg/ml) of Iturin A4,[12],25 µg/mL
same,Mortality (%),[13]; female mice,0%
same,Time-Dependent Mortality,[13]; female mice,0/5
same,LD50 (mg/kg),[13]; female mice,"> 2,000 mg/kg"
same,Mortality (%),[13]; male mice,0%
same,Time-Dependent Mortality,[13]; male mice,0/5
same,LD50 (mg/kg),[13]; male mice,"> 2,000 mg/kg"
same,time until vitality came back to normal after the administration,[13]; [15],2 h
same,vitality of the test mice just after the administration,[13]; [15],lowered slightly
same,MIC (μg/ml) of Iturin A4,[1]; Candida albicans 7N (Table 6),25 µg/mL
same,Mortality (%),[14],0%
same,Time-Dependent Mortality,[14]; 14 days,0/5
same,Time-Dependent Mortality,[14]; day 1,0/5
"CCCCCCCCCCCCC1CC(=O)N[C@@H](CC(N)=O)C(=O)N[C@H](Cc2ccc(O)cc2)C(=O)N[C@H](CC(N)=O)C(=O)N[C@@H](CCC(N)=O)C(=O)N2CCC[C@H]2C(=O)N[C@H](CC(N)=O)C(=O)N[C@@H](CO)C(=O)N1 (stereo partly shown) [Iturin A5, iturin A5] (cyclo(N[dY][dN]QP[dN]S[X5]))",MIC,[1],25 µg/mL
"CCC(C)CCCCCCCCC1CC(=O)N[C@@H](CC(N)=O)C(=O)N[C@H](Cc2ccc(O)cc2)C(=O)N[C@H](CC(N)=O)C(=O)N[C@@H](CCC(N)=O)C(=O)N2CCC[C@H]2C(=O)N[C@H](CC(N)=O)C(=O)N[C@@H](CO)C(=O)N1 (stereo partly shown) [Iturin A3, iturin A3] (cyclo(N[dY][dN]QP[dN]S[X3]))",MIC,[1],50 µg/mL
"CCCCCCCCCCCC1CC(=O)N[C@@H](CC(N)=O)C(=O)N[C@H](Cc2ccc(O)cc2)C(=O)N[C@H](CC(N)=O)C(=O)N[C@@H](CCC(N)=O)C(=O)N2CCC[C@H]2C(=O)N[C@H](CC(N)=O)C(=O)N[C@@H](CO)C(=O)N1 (stereo partly drawn) [Iturin A2, iturin A2] (cyclo(N[dY][dN]QP[dN]S[ξβ3hGly(undecyl)]))",MIC,[1],50 µg/mL
